Data: US4957923A, “Diuretic or antihypertensive composition” (Fujisawa Pharmaceutical Co., Ltd., priority 1988, dated 1990)

How the values were obtained:
[1] = tested on: healthy male adult volunteers; experiment: Diuretic action (human); assay type: in vivo; settings: mean ± S.D.
Description: To healthy male adult volunteers, 300 mg (the capsule of Example 3 below ×1) (6 men) or 600 mg (the capsule of Example 3 below ×2) (6 men) of compound A was orally […] administered in fasting condition, or 600 mg (the capsule of Example 3 below×2) (6 men) of compound A was orally administered 30 minutes after breakfast. In each group, the 24-hr urine volume before administration and that on day 1 after administration were respectively determined.

DOCA hypertensive rats = experiment: Antihypertension action (DOCA hypertensive rats); assay type: in vivo, rat (Wistar)
Description: Male Wistar rats, 10 weeks old, were subjected to left nephrectomy and 2 to 4 days after operation, deoxycorticosterone acetate was administered subcutaneously in a dose of 30 mg/ml/kg twice a week. The animals were given 1% saline for drinking water and the individuals showing a mean blood pressure of ≥150 mmHg at 15 weeks of age were submitted to the experiment. After catheterization, saline for drinking water was replaced with tap water. At the beginning of the experiment, the test rats had mean blood pressures from 152 to 204 mmHg, heart rates from 354 to 462 beats/min. and body weights from 232 to 318 g. 3~5 Animals per group were used.
3 Or 4 days before the beginning of the experiment, one end of a catheter for blood pressure measurement was passed from the femoral artery to the abdominal aorta of each rat and the other end was passed beneath the skin and fixed in exposed position in the dorsocervical region. The drug was orally administered once a day for 5 consecutive days. The rats had been deprived of food for about 3 hours before drug administration. The blood pressure was measured before administration and 5 hours after administration of days 1, 3 and 5. At each blood pressure measurement, the mean blood pressure was observed via a pressure transducer connected to the dorsocervical end of the catheter for blood pressure measurement and the stabilized mean blood pressure was recorded.
Drug was suspended and diluted using a 0.5% solution of methylcellulose and 5ml/kg of the suspension was orally administered.

[2] = tested on: healthy male adult volunteers; experiment: Antihypertensive action (human); assay type: in vivo; settings: mean ± S.D.
Description: To 6 healthy male adult volunteers, 150 mg of compound A (one capsule each of capsules shown in Examples 1 and 2 below) was orally administered twice a day at a 12-hour interval from 30 minutes after breakfast to 2 hours after supper for 8 consecutive days (except on day 8 when the administration was made only once in the morning) and the systolic blood pressure in standing position was measured.

[3] = 3.2 mg/kg p.o. once a day, Day 1 before administration (baseline)
[4] = 3.2 mg/kg p.o. once a day, Day 3 after 5 hr
[5] = 3.2 mg/kg p.o. once a day, Day 3 before administration
[6] = 3.2 mg/kg p.o. once a day, Day 5 after 5 hr
[7] = 3.2 mg/kg p.o. once a day, Day 5 before administration
[8] = 10 mg/kg p.o. once a day, Day 1 after 5 hr
[9] = 10 mg/kg p.o. once a day, Day 1 before administration (baseline)
[10] = 10 mg/kg p.o. once a day, Day 3 after 5 hr
[11] = 10 mg/kg p.o. once a day, Day 3 before administration
[12] = 10 mg/kg p.o. once a day, Day 5 after 5 hr
[13] = 10 mg/kg p.o. once a day, Day 5 before administration
[14] = 32 mg/kg p.o. once a day, Day 1 after 5 hr
[15] = 32 mg/kg p.o. once a day, Day 1 before administration (baseline)
[16] = 32 mg/kg p.o. once a day, Day 3 after 5 hr
[17] = 32 mg/kg p.o. once a day, Day 3 before administration
[18] = 32 mg/kg p.o. once a day, Day 5 after 5 hr
[19] = 32 mg/kg p.o. once a day, Day 5 before administration

Question: What does the source list for `O=C(O)Cn1c(=O)n(Cc2ccc(Br)cc2F)c(=O)c2ccc(Cl)cc21` [Compound A, 2-[7-Chloro-3-(4-bromo-2-fluorobenzyl)-1,2,3,4-tetrahydro-2,4-dioxoquinazolin-1-yl]acetic acid]?
Answer: Urine volume ([1]; 300 mg p.o., without breakfast, 0-2 hr): 95 ± 57 mL; Urine volume ([1]; 300 mg p.o., without breakfast, 2-4 hr): 136 ± 60 mL; Urine volume ([1]; 300 mg p.o., without breakfast, 4-8 hr): 328 ± 55 mL; Urine volume ([1]; 300 mg p.o., without breakfast, 8-12 hr): 340 ± 79 mL; Urine volume ([1]; 300 mg p.o., without breakfast, 12-24 hr): 609 ± 147 mL; Urine volume ([1]; 300 mg p.o., without breakfast, -24-0 hr (before administration, baseline)): 902 ± 256 mL; Urine volume ([1]; 300 mg p.o., without breakfast, total 0-24 hr): 1508 ± 274 mL; Urine volume ([1]; 600 mg p.o., 30 min after breakfast, 0-2 hr): 130 ± 46 mL; Urine volume ([1]; 600 mg p.o., 30 min after breakfast, 2-4 hr): 151 ± 19 mL; Urine volume ([1]; 600 mg p.o., 30 min after breakfast, 4-8 hr): 414 ± 161 mL; Urine volume ([1]; 600 mg p.o., 30 min after breakfast, 8-12 hr): 507 ± 139 mL; Urine volume ([1]; 600 mg p.o., 30 min after breakfast, 12-24 hr): 829 ± 240 mL; Urine volume ([1]; 600 mg p.o., 30 min after breakfast, -24-0 hr (before administration, baseline)): 1234 ± 212 mL; Urine volume ([1]; 600 mg p.o., 30 min after breakfast, total 0-24 hr): 2031 ± 362 mL; Urine volume ([1]; 600 mg p.o., without breakfast, 0-2 hr): 64 ± 24 mL; Urine volume ([1]; 600 mg p.o., without breakfast, 2-4 hr): 82 ± 32 mL; Urine volume ([1]; 600 mg p.o., without breakfast, 4-8 hr): 292 ± 50 mL; Urine volume ([1]; 600 mg p.o., without breakfast, 8-12 hr): 393 ± 141 mL; Urine volume ([1]; 600 mg p.o., without breakfast, 12-24 hr): 863 ± 253 mL; Urine volume ([1]; 600 mg p.o., without breakfast, -24-0 hr (before administration, baseline)): 982 ± 293 mL; Urine volume ([1]; 600 mg p.o., without breakfast, total 0-24 hr): 1693 ± 368 mL; Mean blood pressure (DOCA hypertensive rats; 3.2 mg/kg p.o. once a day, Day 1 after 5 hr): 148 mm Hg; Mean blood pressure (DOCA hypertensive rats; [3]): 175 mm Hg; Percentage of change (mean blood pressure) (DOCA hypertensive rats; [3]): 0.0%; Mean blood pressure (DOCA hypertensive rats; [4]): 142 mm Hg; Percentage of change (mean blood pressure) (DOCA hypertensive rats; [4]): -18.6%; Mean blood pressure (DOCA hypertensive rats; [5]): 153 mm Hg; Percentage of change (mean blood pressure) (DOCA hypertensive rats; [5]): -13.4%; Mean blood pressure (DOCA hypertensive rats; [6]): 131 mm Hg; Percentage of change (mean blood pressure) (DOCA hypertensive rats; [6]): -24.9%; Mean blood pressure (DOCA hypertensive rats; [7]): 139 mm Hg; Percentage of change (mean blood pressure) (DOCA hypertensive rats; [7]): -21.0%; Mean blood pressure (DOCA hypertensive rats; [8]): 145 mm Hg; Percentage of change (mean blood pressure) (DOCA hypertensive rats; [8]): -13.0%; Mean blood pressure (DOCA hypertensive rats; [9]): 166 mm Hg; Percentage of change (mean blood pressure) (DOCA hypertensive rats; [9]): 0.0%; Mean blood pressure (DOCA hypertensive rats; [10]): 127 mm Hg; Percentage of change (mean blood pressure) (DOCA hypertensive rats; [10]): -23.1%; Mean blood pressure (DOCA hypertensive rats; [11]): 137 mm Hg; Percentage of change (mean blood pressure) (DOCA hypertensive rats; [11]): -17.2%; Mean blood pressure (DOCA hypertensive rats; [12]): 118 mm Hg; Percentage of change (mean blood pressure) (DOCA hypertensive rats; [12]): -29.1%; Mean blood pressure (DOCA hypertensive rats; [13]): 127 mm Hg; Percentage of change (mean blood pressure) (DOCA hypertensive rats; [13]): -23.2%; Mean blood pressure (DOCA hypertensive rats; [14]): 133 mm Hg; Percentage of change (mean blood pressure) (DOCA hypertensive rats; [14]): -20.1%; Mean blood pressure (DOCA hypertensive rats; [15]): 168 mm Hg; Percentage of change (mean blood pressure) (DOCA hypertensive rats; [15]): 0.0%; Mean blood pressure (DOCA hypertensive rats; [16]): 132 mm Hg; Percentage of change (mean blood pressure) (DOCA hypertensive rats; [16]): -20.1%; Mean blood pressure (DOCA hypertensive rats; [17]): 133 mm Hg; Percentage of change (mean blood pressure) (DOCA hypertensive rats; [17]): -19.2%; Mean blood pressure (DOCA hypertensive rats; [18]): 116 mm Hg; Percentage of change (mean blood pressure) (DOCA hypertensive rats; [18]): -30.2%; Mean blood pressure (DOCA hypertensive rats; [19]): 117 mm Hg; Percentage of change (mean blood pressure) (DOCA hypertensive rats; [19]): -29.5%; Systolic blood pressure in standing position ([2]; 150 mg p.o. twice a day for 8 days, Day 9 immediately before breakfast): 113 ± 3 mmHg; Systolic blood pressure in standing position ([2]; 150 mg p.o. twice a day for 8 days, Day 10 immediately before breakfast): 117 ± 6 mmHg; Systolic blood pressure in standing position ([2]; 150 mg p.o. twice a day, Day 1 immediately before breakfast (before first dose, baseline)): 121 ± 8 mmHg; Systolic blood pressure in standing position ([2]; 150 mg p.o. twice a day, Day 2 immediately before breakfast): 113 ± 6 mmHg; Systolic blood pressure in standing position ([2]; 150 mg p.o. twice a day, Day 3 immediately before breakfast): 114 ± 7 mmHg; Systolic blood pressure in standing position ([2]; 150 mg p.o. twice a day, Day 4 immediately before breakfast): 114 ± 5 mmHg; Systolic blood pressure in standing position ([2]; 150 mg p.o. twice a day, Day 5 immediately before breakfast): 110 ± 8 mmHg; Systolic blood pressure in standing position ([2]; 150 mg p.o. twice a day, Day 6 immediately before breakfast): 114 ± 6 mmHg; Systolic blood pressure in standing position ([2]; 150 mg p.o. twice a day, Day 7 immediately before breakfast): 116 ± 8 mmHg; Systolic blood pressure in standing position ([2]; 150 mg p.o. twice a day, Day 8 immediately before breakfast): 117 ± 5 mmHg
